Reference: patent US10071984B2, “Histone demethylase inhibitors” (Celgene Quanticel Research, Inc., priority 2014, dated 2018)

What was measured:
[1] = biological target: FBXL10 (Homo sapiens (Human), UniProt Q8NHM5); assay: FBXL10 in vitro enzyme inhibition assay (AlphaScreen); assay type: biochemical; conditions: 0.3 nM FBXL10, H3K36me2-biotin peptide
Excerpt: (§1) This assay determines the ability of a test compound to inhibit FBXL11, FBXL10, and PHF8 demethylase activity. Baculovirus expressed FBXL11 (GenBank Accession #NM_012308, AA1-1162) was purchased from BPS Bioscience (Cat#50102). Baculovirus expressed FBXL10 (GenBank Accession #NM_032590, AA 1-650) was purchased from BPS Bioscience (Cat #50120). Baculovirus expressed PHF8 (GenBank Accession NP_055922.1) was purchased from Active Motif (Cat#31435).
The ability of test compounds to inhibit the activity of FBXL10 was determined in 384-well plate format under the following reaction conditions: 0.3 nM FBXL10, 30 nM H3K36me2-biotin labeled peptide (Anaspec cat #64442), 0.2 μM alpha-ketoglutaric acid in assay buffer of 50 mM HEPES, pH7.3, 0.005% Brij35, 0.5 mM TCEP, 0.2 mg/ml BSA, 50 μM sodium L-ascorbate, 5 μM ammonium iron(II) sulfate. Reaction product is determined quantitatively by AlphaScreen detection after the addition of detection reagents anti-H3K36me1 antibody, AlphaScreen® Streptavidin-coated Donor beads, and AlphaScreen® Protein A Acceptor beads in 50 mM HEPES, pH7.3, 10 mM NaCl, 0.005% Brij35, 5 mM EDTA, 2 mg/ml BSA to final 10 μg/ml beads.
The assay reaction was initiated by the following: 3 μl of the mixture of 90 nM H3K36me2-biotin labeled peptide and 0.6 μM alpha-ketoglutaric acid with 3 μl of 11-point serial diluted inhibitor in 3% DMSO are added to each well of 384 well Proxiplate (Perkin Elmer), followed by the addition of 3 μl of 0.9 nM FBXL10 to initiate the reaction. The reaction mixture is incubated at room temperature for 1 hour, and terminated by the addition of 3 μl of appropriate dilution of anti H3K36me1 antibody in 50 mM HEPES, pH7.3, 10 mM NaCl, 0.005% Brij35, 5 mM EDTA, 2 mg/ml BSA. Plates will then incubated at room temperature for 40 minutes, followed by addition of 3 ul of 50 μg/ml AlphaScreen® Streptavidin-coated Donor beads and AlphaScreen® Protein A Acceptor beads in 50 mM HEPES, pH7.3, 10 mM NaCl, 0.005% Brij35, 5 mM EDTA, 2 mg/ml BSA. Plates will then be read by EnVision Multilabel Reader in AlphaScreen mode after minimum 2 hour incubation at room temperature. The AlphaScreen signal for each well is used to determine inhibition constant (IC50).
(§2) The ability of the compounds disclosed herein to inhibit demethylase activity was quantified and the respective IC50 value was determined.

[2] = biological target: PHF8 (Homo sapiens (Human), UniProt Q9UPP1); assay: PHF8 in vitro enzyme inhibition assay (TR-FRET); assay type: biochemical; conditions: 3 nM PHF8, H3K9me1-biotin peptide
Excerpt: as §1
The ability of test compounds to inhibit the activity of PHF8 was determined in 384-well plate format under the following reaction conditions: 3 nM PHF8, 200 nM H3K9me1-biotin labeled peptide (Anaspec cat #64358), 0.5 μM alpha-ketoglutaric acid in assay buffer of 50 mM HEPES, pH7.3, 0.005% Brij35, 0.5 mM TCEP, 0.2 mg/ml BSA, 50 μM sodium L-ascorbate, and 5 μM ammonium iron(II) sulfate. Reaction product was determined quantitatively by TR-FRET after the addition of detection reagent Phycolink Streptavidin-allophycocyanin (Prozyme) and Europium-anti-unmodified-histone H3 lysine 9/lysine27 (H3K9/K27) antibody (PerkinElmer) in the presence of 5 mM EDTA in LANCE detection buffer (PerkinElmer) at a final concentration of 25 nM and 0.5 nM, respectively.
The assay reaction was initiated by the following: 2 μl of the mixture of 600 nM H3K9me1-biotin labeled peptide and 1.5 μM alpha-ketoglutaric acid with 2 μl of 11-point serial diluted inhibitor in 3% DMSO were added to each well of the plate, followed by the addition of 2 μl of 9 nM PHF8 to initiate the reaction. The reaction mixture was incubated at room temperature for 15 minutes, and terminated by the addition of 6 μl of 5 mM EDTA in LANCE detection buffer containing 50 nM Phycolink Streptavidin-allophycocyanin and 1 nM Europium-anti-unmodified H3K9/K27 antibody. Plates were read by EnVision Multilabel Reader in TR-FRET mode (excitation at 320 nm, emission at 615 nm and 665 nm) after 1 hour incubation at room temperature. A ratio was calculated (665/615) for each well and fitted to determine inhibition constant (IC50).
as §2

PHF8, sequence (Q9UPP1 37-1060): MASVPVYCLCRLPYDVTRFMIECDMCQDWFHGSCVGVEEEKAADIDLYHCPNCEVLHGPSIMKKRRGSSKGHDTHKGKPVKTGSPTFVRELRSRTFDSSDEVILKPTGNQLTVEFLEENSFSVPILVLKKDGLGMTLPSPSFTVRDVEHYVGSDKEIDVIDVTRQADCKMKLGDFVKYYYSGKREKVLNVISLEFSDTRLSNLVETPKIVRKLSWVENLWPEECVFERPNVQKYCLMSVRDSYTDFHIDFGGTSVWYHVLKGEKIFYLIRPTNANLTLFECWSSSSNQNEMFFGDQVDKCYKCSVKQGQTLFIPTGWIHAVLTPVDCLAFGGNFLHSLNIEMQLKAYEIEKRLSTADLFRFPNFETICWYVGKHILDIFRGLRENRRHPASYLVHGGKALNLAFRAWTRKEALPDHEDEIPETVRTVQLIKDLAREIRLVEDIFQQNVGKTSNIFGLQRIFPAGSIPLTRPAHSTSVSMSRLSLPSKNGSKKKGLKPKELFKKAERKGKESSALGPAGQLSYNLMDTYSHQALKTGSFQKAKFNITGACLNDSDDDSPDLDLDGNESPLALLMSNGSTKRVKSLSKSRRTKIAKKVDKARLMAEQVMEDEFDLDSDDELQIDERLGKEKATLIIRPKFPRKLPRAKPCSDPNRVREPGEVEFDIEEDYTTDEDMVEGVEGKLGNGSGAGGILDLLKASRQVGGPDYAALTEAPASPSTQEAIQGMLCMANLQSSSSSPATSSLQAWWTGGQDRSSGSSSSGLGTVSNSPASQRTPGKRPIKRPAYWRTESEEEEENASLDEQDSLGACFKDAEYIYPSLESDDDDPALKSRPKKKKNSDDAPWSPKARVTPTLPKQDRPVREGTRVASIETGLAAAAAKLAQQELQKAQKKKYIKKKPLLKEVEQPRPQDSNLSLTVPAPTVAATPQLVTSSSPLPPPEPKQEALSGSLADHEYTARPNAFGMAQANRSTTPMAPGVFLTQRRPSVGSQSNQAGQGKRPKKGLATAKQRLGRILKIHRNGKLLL
FBXL10, sequence (Q8NHM5 1-650): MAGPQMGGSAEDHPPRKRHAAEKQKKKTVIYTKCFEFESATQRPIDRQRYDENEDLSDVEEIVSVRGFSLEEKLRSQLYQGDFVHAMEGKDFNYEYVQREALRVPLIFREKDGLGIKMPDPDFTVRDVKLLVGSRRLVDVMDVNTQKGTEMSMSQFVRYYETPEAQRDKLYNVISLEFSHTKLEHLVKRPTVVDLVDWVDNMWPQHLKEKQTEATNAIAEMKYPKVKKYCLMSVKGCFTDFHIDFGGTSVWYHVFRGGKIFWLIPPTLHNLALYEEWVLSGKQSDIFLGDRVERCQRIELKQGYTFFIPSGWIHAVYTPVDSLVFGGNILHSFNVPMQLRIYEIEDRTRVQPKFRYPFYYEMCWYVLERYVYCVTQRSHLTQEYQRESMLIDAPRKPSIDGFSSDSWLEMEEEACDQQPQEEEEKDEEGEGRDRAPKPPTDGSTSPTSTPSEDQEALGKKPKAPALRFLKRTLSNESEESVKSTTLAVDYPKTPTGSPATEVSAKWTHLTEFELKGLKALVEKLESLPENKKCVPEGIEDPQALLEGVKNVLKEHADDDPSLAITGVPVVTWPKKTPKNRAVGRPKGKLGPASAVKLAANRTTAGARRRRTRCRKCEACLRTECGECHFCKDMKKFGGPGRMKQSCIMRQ

SMILES | IC50 [1] [µM] | IC50 [2] [µM]
Cn1cnc(-c2cc(-c3nn[nH]c3Cl)ccn2)c1-c1ccc(F)cc1OCC1CC1 [Example 40, 4-(5-chloro-1H-triazol-4-yl)-2-[5-[2-(cyclopropylmethoxy)-4-fluorophenyl]-1-methylimidazol-4-yl]pyridine] | ≤ 0.1 | > 10
FC(F)(F)c1[nH]nnc1-c1ccnc(-c2cn(CCc3cccc4ccccc34)cn2)c1 [Example 37, 2-[1-(2-naphthalen-1-ylethyl)imidazol-4-yl]-4-[5-(trifluoromethyl)-1H-triazol-4-yl]pyridine] | ≤ 0.1 | > 10
N#Cc1[nH]nnc1-c1ccnc(-c2cn(CCc3cccc4ccccc34)cn2)c1 [Example 16, 4-[2-[1-(2-naphthalen-1-ylethyl)imidazol-4-yl]pyridin-4-yl]-1H-triazole-5-carbonitrile] | ≤ 0.1 | 0.1 to 1
Fc1[nH]nnc1-c1ccnc(-c2cn(CCc3cccc4ccccc34)cn2)c1 [Example 35, 4-(5-fluoro-1H-triazol-4-yl)-2-[1-(2-naphthalen-1-ylethyl)imidazol-4-yl]pyridine] | ≤ 0.1 | 0.1 to 1
Fc1c(Cl)cccc1Cn1cnc(-c2cc(-c3c[nH]nn3)ccn2)c1 [Example 29, 2-[1-[(3-chloro-2-fluorophenyl)methyl]imidazol-4-yl]-4-(1H-triazol-4-yl)pyridine] | ≤ 0.1 | ≤ 0.1
N#Cc1[nH]nnc1-c1ccnc(-c2cn(Cc3ccccc3Cl)cn2)c1 [Example 13, 4-[2-[1-[(2-chlorophenyl)methyl]imidazol-4-yl]pyridin-4-yl]-1H-triazole-5-carbonitrile] | ≤ 0.1 | 1 to 10
FC(F)(F)COc1ccccc1CCn1cnc(-c2cc(-c3c[nH]nn3)ccn2)c1 [Example 10, 4-(1H-triazol-4-yl)-2-[1-[2-[2-(2,2,2-trifluoroethoxy)phenyl]ethyl]imidazol-4-yl]pyridine] | ≤ 0.1 | 0.1 to 1
COc1cc(-c2c(-c3cc(-c4c[nH]nn4)ccn3)ncn2C)ccc1F [Example 24, 2-[5-(4-fluoro-3-methoxyphenyl)-1-methylimidazol-4-yl]-4-(1H-triazol-4-yl)pyridine] | ≤ 0.1 | 0.1 to 1
CC(C)(Cn1cnc(-c2cc(-c3c[nH]nn3)ccn2)c1)c1ccccc1Cl [Example 32, 2-[1-[2-(2-chlorophenyl)-2-methylpropyl]imidazol-4-yl]-4-(1H-triazol-4-yl)pyridine] | ≤ 0.1 | 0.1 to 1
Cn1cnc(-c2cc(-c3c[nH]nn3)ccn2)c1-c1ccc(F)cc1 [Example 3, 2-[5-(4-fluorophenyl)-1-methylimidazol-4-yl]-4-(1H-triazol-4-yl)pyridine] | ≤ 0.1 | 0.1 to 1
Ic1[nH]nnc1-c1ccnc(-c2cn(CCc3cccc4ccccc34)cn2)c1 [Example 38, 4-(5-iodo-1H-triazol-4-yl)-2-[1-(2-naphthalen-1-ylethyl)imidazol-4-yl]pyridine] | ≤ 0.1 | > 10
c1ccc2c(c1)OCCC2Cn1cnc(-c2cc(-c3c[nH]nn3)ccn2)c1 (stereo not shown) [Example 12, 2-[1-(3,4-dihydro-2H-chromen-4-ylmethyl)imidazol-4-yl]-4-(1H-triazol-4-yl)pyridine] | ≤ 0.1 | ≤ 0.1
CC(Cc1ccccc1)n1cnc(-c2cc(-c3c[nH]nn3)ccn2)c1 (stereo not shown) [Example 33, 2-[1-(1-phenylpropan-2-yl)imidazol-4-yl]-4-(1H-triazol-4-yl)pyridine] | – | 1 to 10
FC(F)(F)c1ccccc1CCn1cnc(-c2cc(-c3c[nH]nn3)ccn2)c1 [Example 31, 4-(1H-triazol-4-yl)-2-[1-[2-[2-(trifluoromethyl)phenyl]ethyl]imidazol-4-yl]pyridine] | ≤ 0.1 | 0.1 to 1
Cc1cccc(Cn2cnc(-c3cc(-c4c[nH]nn4)ccn3)c2)c1F [Example 28, 2-[1-[(2-fluoro-3-methylphenyl)methyl]imidazol-4-yl]-4-(1H-triazol-4-yl)pyridin] | ≤ 0.1 | 0.1 to 1
N#Cc1[nH]nnc1-c1ccnc(-c2cn(CC3CCCc4ccccc43)cn2)c1 (stereo not shown) [Example 15, 4-[2-[1-(1,2,3,4-tetrahydronaphthalen-1-ylmethyl)imidazol-4-yl]pyridin-4-yl]-1H-triazole-5-carbonitrile] | ≤ 0.1 | 0.1 to 1
N#Cc1[nH]nnc1-c1ccnc(-c2cn(Cc3cccc(Cl)c3Cl)cn2)c1 [Example 14, 4-[2-[1-[(2,3-dichlorophenyl)methyl]imidazol-4-yl]pyridin-4-yl]-1H-triazole-5-carbonitrile] | ≤ 0.1 | 1 to 10
Clc1[nH]nnc1-c1ccnc(-c2cn(CCc3cccc4ccccc34)cn2)c1 [Example 36, 4-(5-chloro-1H-triazol-4-yl)-2-[1-(2-naphthalen-1-ylethyl)imidazol-4-yl]pyridine] | ≤ 0.1 | 1 to 10
Cn1cnc(-c2cc(-c3nn[nH]c3F)ccn2)c1-c1ccc(F)cc1OCC1CC1 [Example 41, 2-[5-[2-(cyclopropylmethoxy)-4-fluorophenyl]-1-methylimidazol-4-yl]-4-(5-fluoro-1H-triazol-4-yl)pyridine] | ≤ 0.1 | 1 to 10
c1ccc(Oc2ccccc2CCn2cnc(-c3cc(-c4c[nH]nn4)ccn3)c2)cc1 [Example 18, 2-[1-[2-(2-phenoxyphenyl)ethyl]imidazol-4-yl]-4-(1H-triazol-4-yl)pyridine] | ≤ 0.1 | 1 to 10
Cn1cnc(-c2cc(-c3nn[nH]c3C#N)ccn2)c1-c1ccc(F)cc1OCC1CC1 [Example 39, 4-[2-[5-[2-(cyclopropylmethoxy)-4-fluorophenyl]-1-methylimidazol-4-yl]pyridin-4-yl]-1H-triazole-5-carbonitrile] | ≤ 0.1 | 1 to 10
c1ccc(COc2ccccc2CCn2cnc(-c3cc(-c4c[nH]nn4)ccn3)c2)cc1 [Example 17, 2-[1-[2-(2-phenylmethoxyphenyl)ethyl]imidazol-4-yl]-4-(1H-triazol-4-yl)pyridine] | ≤ 0.1 | 1 to 10
c1ccc(-c2ccccc2CCn2cnc(-c3cc(-c4c[nH]nn4)ccn3)c2)cc1 [Example 27, 2-[1-[2-(2-phenylphenyl)ethyl]imidazol-4-yl]-4-(1H-triazol-4-yl)pyridine] | – | 1 to 10
Clc1cccc(Cn2cnc(-c3cc(-c4nn[nH]c4I)ccn3)c2)c1Cl [Example 19, 2-[1-[(2,3-dichlorophenyl)methyl]imidazol-4-yl]-4-(5-iodo-1H-triazol-4-yl)pyridine] | ≤ 0.1 | 0.1 to 1
Fc1c(Cn2cnc(-c3cc(-c4c[nH]nn4)ccn3)c2)cccc1OC(F)(F)F [Example 26, 2-[1-[[2-fluoro-3-(trifluoromethoxy)phenyl]methyl]imidazol-44-yl]-4-(1H-triazol-4-yl)pyridine] | – | 1 to 10
Fc1[nH]nnc1-c1ccnc(-c2cn(Cc3cccc(Cl)c3Cl)cn2)c1 [Example 20, 2-[1-[(2,3-dichlorophenyl)methyl]imidazol-4-yl]-4-(5-fluoro-1H-triazol-4-yl)pyridine] | ≤ 0.1 | 0.1 to 1
